Measurements: patent publication US6911470B1, “Polyoxometalate compounds as antiviral agents” (priority 1988, dated 2005)
Where two headings read alike, the source gives them in different places.

What was measured:
Friend, Spleen (EY-10) = experiment: UV/XC assay for murine retroviruses in SC-1 cells; type: cell-based, murine retrovirus; settings: Table 2, read-out: EC-50 Friend, Spleen (EY-10)
Method: UV/XC Assay for Murine Retroviruses Cells. Mouse embryo fibroblasts (SC-1) and XC cells were obtained from the American Type Culture Collection, Rockville, Md. The XC cell line was derived from a transplantable tumor induced in newborn White-Weston rats by the intramuscular injection of the Prague strain of Rous sarcoma virus. […] The cells were maintained in Eagle's minimum essential medium with Hanks balanced salt solution, supplemented with penicillin (100 U/ml), streptomycin (100 μg/ml), sodium bicarbonate (24 mM), Hepes (25 mM), and either 2 (maintenance) or 10 (growth) percent inactivated newborn or fetal calf serum.
Virus quantitation by UV-XC assay. The XC test (Rowe et al, Virology 42, 1136-1139, 1970) is a plaque-type of assay which tests for the presence and titer of B- and N-tropic murine leukemia viruses. Because these viruses produce no overt signs of infection of SC-1 mouse cells, it is necessary to overlay the virus producing culture with an indicator cell line, XC. The number of syncytia that are produced is a direct measure of the virus titer in FFU.
Six-well plates were seeded with 1×10^5 SC-1 mouse cells on the first day. On the following day the medium was removed and the inoculum (0.2 ml) was added in medium containing polybrene (4 μg/ml). For determining the antiviral activity of the compounds in culture, the virus dilution selected produced in untreated cultures about 80 foci per well. After 1 hour, the virus was removed and various concentrations of the drug were added. The plates were replenished with medium on the third and fifth days. The medium was removed on the eighth day and the cells exposed to UV irradiation (60 erg/mm^2 per sec) for 30 seconds. Medium containing 10^6 XC cells was then added to each plate. On the eleventh day, the plates were fixed with 10% buffered Formalin and stained with crystal violet. Comparison of the number of foci to those found in virus-infected cells receiving no drug allowed determination of whether a drug at a particular concentration was effective. Control cells without virus but receiving the drug provided an estimate of the drug's toxic effects as quantitated by using trypan blue staining.

[1] = test system: Friend retrovirus, strain FV-PLS; experiment: Splenomegaly model in BALB/c mice infected with Friend virus; settings: for % Effectiveness / Mean Spleen wt. (mg) ± SD: sacrifice day 16
Method: Tests were conducted in whole infected mice using one of the compounds to the present invention. The methodology of this test is the same as was used in Ruprecht et al, Nature 323, 467-469, except that Friend virus was used instead of Rauscher virus.
Comparison of Toxicity of Polyoxometalate Compounds Mice. Female BALB/c mice (3 to 4 weeks old), obtained from Charles River Laboratories (Raleigh, N.C.), were acclimatized in the animal facility for two weeks. They-were then inoculated (200 μl) into the peritoneal cavity with Friend retrovirus, strain FV-PLS. A virus inoculum [about 100 focus forming units (FFU)/mouse] was selected which caused a splenomegaly rate of 100% on day 16 after virus inoculation in untreated animals. The virus titer of the inoculum was determined by a UV/XC assay.
In vivo antiviral experiments. Mice were inoculated intraperitoneally with virus at noon and then randomized into ten animals per treatment group. Five hours after virus inoculation, the mice were treated intraperitoneally with the compounds. Treatment was continued daily for 6 or 10 days. On day 16 after virus inoculation, the animals were sacrificed by carbon dioxide inhalation and their spleens removed under aseptic conditions and weighed.

SIV = experiment: Activity against SIV; type: cell-based, simian immunodeficiency virus; settings: Table 2
[2] = background statement; AZT in a clinical setting; cited from earlier work
[3] = Comparison of toxicity of polyoxometalate compounds in mice (mortality, haematology); type: in vivo; parameters: MCV (mean corpuscular volume): unit not given here; settings: BID × 6, 60 mkd i.p.
Text: Comparison of Toxicity of Polyoxometalate Compounds Mice.
In vivo antiviral experiments. […] Treatment was continued daily for 6 or 10 days.

## H4SiW12O40 [Formula 3]
Friend, Spleen (EY-10)
  EC50: 170 nM

## Cc1cn([C@H]2C[C@H](N=[N+]=[N-])[C@@H](CO)O2)c(=O)[nH]c1=O [Formula 22, 3′-azido-3′-deoxythymidine, reference compound]
Friend, Spleen (EY-10); unidentified retrovirus, SC-1
  EC50: 10 nM
[1]; 30 mkd IP QD × 10
  % Mortality: 0%
  % Effectiveness: 38.4%
  Mean Spleen wt. (mg) ± SD: 1,249 ± 1,152 mg
[1]; 60 mkd IP QD × 10
  % Mortality: 0%
  % Effectiveness: 51.3%
  Mean Spleen wt. (mg) ± SD: 988 ± 836 mg
SIV
  EC50: 2.88 nM
[2]
  adverse effect: reversible bone marrow toxicity

## (ArgH^+)m(H^+)4-mST, where m=1-4 [(ARGH^+)nH^+(4−n)ST]
Friend, Spleen (EY-10)
  EC50: 990 nM
[3]; bled on day 17
  Hct (hematocrit): 18.16 ± 6.02%
  Hgb (hemaglobin): 7.08 ± 2.51 g/dL
  MCH: 17.8 ± 1.6 pg
  MCHC (mean corpuscular hemoglobin concentration): 38.62 ± 3.49 g/dL
  MCV (mean corpuscular volume): 46.08 ± 0.45
  PLT (platelates) (×1000): 325 ×1000
  RBC (×1000000): 3.95 ± 1.31 ×1000000
  RDW (width of red cells): 36.68 ± 1.31%
  WBC (×1000): 6.28 ± 2.19 ×1000
[3]; dead/total
  Mortality: 0/5

## H5BW12O40 [Formula 4]
Friend, Spleen (EY-10)
  EC50: 180 nM

## (NH4)4W10O32 [Formula 18]
Friend, Spleen (EY-10)
  EC50: 580 nM
